Source: PubChem BioAssay AID1117265 (The Scripps Research Institute Molecular Screening Center, 2014)
The source made the active and inactive calls. How the calls were made is not given here.

biological target: Trace amine-associated receptor 1 (Homo sapiens) (UniProt Q96RJ0); experiment: blockers of trace amine receptor TAAR1 – cell-based, fluorescence, MedChem round 2, late-stage follow-up (AID 1117265); details: TAAR1-expressing cells, antagonist mode
Sequence (Q96RJ0 whole entry, looked up, the tested form may be a part): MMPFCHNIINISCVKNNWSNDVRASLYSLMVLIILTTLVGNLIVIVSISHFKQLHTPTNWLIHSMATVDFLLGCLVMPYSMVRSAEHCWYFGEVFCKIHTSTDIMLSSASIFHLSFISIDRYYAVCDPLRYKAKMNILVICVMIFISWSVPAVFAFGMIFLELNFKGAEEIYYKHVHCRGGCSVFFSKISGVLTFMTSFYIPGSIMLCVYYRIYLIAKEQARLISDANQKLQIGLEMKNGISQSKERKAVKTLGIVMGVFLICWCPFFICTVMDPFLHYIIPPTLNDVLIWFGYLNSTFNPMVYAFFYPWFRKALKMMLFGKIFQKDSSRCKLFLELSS

Structure (SMILES)	IC50
N#Cc1c(C(F)(F)F)cc(-c2ccc(Cl)cc2)nc1SCC(=O)N1CCCC1	1070 nM
N#Cc1c(C(F)(F)F)cc(-c2ccc(Cl)cc2)nc1SCC(=O)Nc1ncccn1	3.74 nM
N#Cc1c(C(F)(F)F)cc(-c2ccc(Cl)cc2)nc1SCC(=O)N1CCCCCC1	> 29900 nM (inactive)
CC(CN1CCCC1Cc1ccccc1)C(=O)c1ccc2c(c1)OCCO2 (configuration not stated)	2960 nM

Next, values leading:

IC50	Structure (SMILES)
672 nM	Cc1ccc(C(=O)CCN2CCC(c3ccccc3)C2)cc1 (configuration not stated)
419 nM	COc1cc(C(=O)CCN2CCC(c3ccccc3)C2)cc(OC)c1OC (configuration not stated)
765 nM	O=C(CCN1CCC(c2ccccc2)C1)c1ccccc1 (configuration not stated)
